The text below walks through data of patent publication US7196110B2, “N-substituted tricyclic 3-aminopyrazoles as inhibitors for the treatment of cell proliferative disorders” (Janssen Phamaceutica N.V., priority 2002, dated 2007).

The target in this assay is T1, PDGF-receptor beta enzyme comprising the tyrosine kinase domain (Homo sapiens, UniProt P09619).
T1 construct: from amino acid 545 to 1106 of GenBank Access NO: AAA36427
The assay can be described thus: Inhibition of PDGF-receptor kinase activity (cell-free, PLC1 peptide, 33P Flashplate). The assay is classed as biochemical. Conditions: for inhibition at 10 µM: read-out: Percent Inhibition @ 10 uM. The gist of the method: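 The IC50 is the inhibitor level halving kinase activity relative to inhibitor-free wells, measured as 33P captured on a streptavidin-bound biotin-PLC1 peptide. The reaction ran 60 min at 30 °C in pH 8 Tris buffer with 1 mM DTT, 5 μM ATP and the 545–1106 kinase-domain enzyme.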

Setting [1] is: PDGF-R kinase activity, compound at 10 uM.
[2] abbreviates: PDGF-R kinase activity, read-out: IC50.
Setting [3] is: read-out: IC50 (μM) on PDGF-R kinase activity.

For orientation: inhibition means the change of the read-out against control, counted positive when it falls. By IC50 is commonly meant the point on the concentration scale where inhibition reaches its midpoint.

Like-named read-outs stand apart in the source and are kept apart here.

T1 sequence (P09619 545-1106): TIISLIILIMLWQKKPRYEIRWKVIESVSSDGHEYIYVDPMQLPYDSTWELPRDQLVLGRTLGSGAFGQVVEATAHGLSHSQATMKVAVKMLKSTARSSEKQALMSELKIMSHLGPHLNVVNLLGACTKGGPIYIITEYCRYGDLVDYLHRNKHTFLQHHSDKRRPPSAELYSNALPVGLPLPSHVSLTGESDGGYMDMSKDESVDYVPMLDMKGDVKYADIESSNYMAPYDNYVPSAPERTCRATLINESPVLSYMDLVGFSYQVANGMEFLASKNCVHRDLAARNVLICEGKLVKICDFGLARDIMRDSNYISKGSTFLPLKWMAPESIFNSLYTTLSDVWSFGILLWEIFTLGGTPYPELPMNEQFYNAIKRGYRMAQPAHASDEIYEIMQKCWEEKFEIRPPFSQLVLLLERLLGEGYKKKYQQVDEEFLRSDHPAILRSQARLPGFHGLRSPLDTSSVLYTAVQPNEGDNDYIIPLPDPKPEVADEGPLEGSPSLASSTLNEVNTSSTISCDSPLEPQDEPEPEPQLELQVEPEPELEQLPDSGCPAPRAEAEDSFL

With `CCOc1cccc(Nc2[nH]nc3c2C(C)(C)c2cc(OC)c(OC)cc2-3)c1` [Compound 489, (6,7-Dimethoxy-4,4-dimethyl-2,4-dihydro-indeno[1,2-c]pyrazol-3-yl)-(3-ethoxy-phenyl)-amine], the inhibition at 10 µM under setting [1] was determined as 25.5%.
Still for that read-out and setting: then `COc1cc2c(cc1OC)C(C)c1c-2n[nH]c1Nc1cccc(Cl)c1` (stereo not drawn) [Compound 257, (3-Chloro-phenyl)-(6,7-dimethoxy-4-methyl-2,4-dihydro-indeno[1,2-c]pyrazol-3-yl)-amine], with 35%.
As to `c1cncc(Nc2[nH]nc3c2Cc2cc4c(cc2-3)OCO4)c1` [Compound 126, (2,9-Dihydro-5,7-dioxa-2,3-diaza-cyclopenta[a]-s-indacen-1-yl)-pyridin-3-yl-amine], the inhibition at 10 µM under setting [1] was found to be 65%. Also, under setting [2], the IC50 was found to be 0.176 µM.
With `CC1c2ccccc2-c2n[nH]c(Nc3cccnc3)c21` (stereo not drawn) [Compound 109, (4-Methyl-2,4-dihydro-indeno[1,2-c]pyrazol-3-yl)-pyridin-3-yl-amine], under setting [1], the inhibition at 10 µM is 83%. For the same compound, the IC50 under setting [2] came out at 0.537 µM.
For `CN(C)CCCOc1cccc2c1Cc1c-2n[nH]c1Nc1ccccc1` [Compound 71, [5-(3-Dimethylamino-propoxy)-2,4-dihydro-indeno[1,2-c]pyrazol-3-yl]-phenyl-amine] the same measures were 110% and 0.185 µM.
For `COc1cc2c(cc1F)Cc1c-2n[nH]c1NCc1ccccc1F` [Compound 426, (2-Fluoro-benzyl)-(6-fluoro-7-methoxy-2,4-dihydro-indeno[1,2-c]pyrazol-3-yl)-amine] the same measures were 97% and 0.241 µM.
The matching figures for `CC1c2ccccc2-c2n[nH]c(Nc3cc(F)ccc3F)c21` (stereo not drawn) [Compound 112, (2,5-Difluoro-phenyl)-(4-methyl-2,4-dihydro-indeno[1,2-c]pyrazol-3-yl)-amine]: 72% and 0.083 µM.
With `COc1cc2c(cc1OC)-c1n[nH]c(Nc3ncccc3C)c1C2` [Compound 587, (6,7-Dimethoxy-2,4-dihydro-indeno[1,2-c]pyrazol-3-yl)-(3-methyl-pyridin-2-yl)-amine], the inhibition at 10 µM under setting [1] is 86%. Under setting [3], the IC50 was 1.7 µM.
For `Nc1ccc2c(c1)Cc1c-2n[nH]c1Nc1cccc(Br)c1` [Compound 117, N3-(3-Bromo-phenyl)-2,4-dihydro-indeno[1,2-c]pyrazole-3,6-diamine], the inhibition at 10 µM under setting [1] is 98%. The IC50 under setting [2] turned out to be 0.13 µM.
For the compound `CCOc1cc2c(cc1OCC)-c1n[nH]c(NCc3ccccc3)c1C2` [Compound 264, Benzyl-(6,7-diethoxy-2,4-dihydro-indeno[1,2-c]pyrazol-3-yl)-amine], the inhibition at 10 µM under setting [1] came out at 86%. Moreover, under setting [2], the IC50 turned out to be 0.0852 µM.
Regarding `COc1cc2c(cc1OCCCN1CCN(C)CC1)Cc1c-2n[nH]c1Nc1cccc(F)c1` [Compound 216, (3-Fluoro-phenyl)-{7-methoxy-6-[3-(4-methyl-piperazin-1-yl)-propoxy]-2,4-dihydro-indeno[1,2-c]pyrazol-3-yl}-amine], under setting [1], the inhibition at 10 µM is 100%. Moreover, under setting [2], the IC50 amounted to 0.0058 µM.
Take `CNC(=S)n1nc(Nc2cccc(F)c2)c2c1-c1cc(OC)c(OC)cc1C2` [Compound 581, 3-(3-Fluoro-phenylamino)-6,7-dimethoxy-4H-indeno[1,2-c]pyrazole-1-carbothioic acid methylamide]: under setting [1], the inhibition at 10 µM was 90.5%. Besides, the IC50 under setting [3] was 1.14 µM.
Consider `COc1cc2c(cc1OC)-c1c(c(Nc3cccc(F)c3)nn1C(=O)NCCN1CCOCC1)C2` [Compound 521, 3-(3-Fluoro-phenylamino)-6,7-dimethoxy-4H-indeno[1,2-c]pyrazole-1-carboxylic acid (2-morpholin-4-yl-ethyl)-amide], for which the inhibition at 10 µM under setting [1] stood at 97%. For the same compound, under setting [2], the IC50 amounted to 0.0559 µM.
For `COc1ccc(Nc2[nH]nc3c2Cc2c(OC)cccc2-3)c(OC)c1` [Compound 148, (2,4-Dimethoxy-phenyl)-(5-methoxy-2,4-dihydro-indeno[1,2-c]pyrazol-3-yl)-amine] the same measures were 57% and 8.6 µM.
For `c1ccc(Nc2[nH]nc3c2CCc2sccc2-3)cc1` [Compound 52, (4,5-Dihydro-2H-6-thia-1,2-diaza-as-indacen-3-yl)-phenyl-amine], the inhibition at 10 µM under setting [1] came out at 71%. For the same compound, the IC50 under setting [2] was determined as 2.4 µM.
The matching figures for `COc1ccc2c(c1)Cc1c-2n[nH]c1Nc1ccc(F)cc1` [Compound 82, (4-Fluoro-phenyl)-(6-methoxy-2,4-dihydro-indeno[1,2-c]pyrazol-3-yl)-amine]: 79% and 0.273 µM.
As for `CCOc1cc2c(cc1OCC)C(C)c1c-2n[nH]c1Nc1cccc(Br)c1` (stereo not drawn) [Compound 346, (3-Bromo-phenyl)-(6,7-diethoxy-4-methyl-2,4-dihydro-indeno[1,2-c]pyrazol-3-yl)-amine], under setting [1], the inhibition at 10 µM stood at 98%. For the same compound, the IC50 under setting [2] came out at 0.0739 µM.
For `N#Cc1ccc2c(c1)CCc1c-2n[nH]c1Nc1ccccc1` [Compound 350, 3-Phenylamino-4,5-dihydro-2H-benzo[g]indazole-7-carbonitrile] the same measures were 91% and 0.651 µM.
For `CC1c2ccccc2-c2n[nH]c(Nc3cccc(F)c3)c21` (stereo not drawn) [Compound 108, (3-Fluoro-phenyl)-(4-methyl-2,4-dihydro-indeno[1,2-c]pyrazol-3-yl)-amine] the same measures were 82% and 0.3 µM.
For `COCCCOc1cc2c(cc1OC)-c1n[nH]c(Nc3cccc(F)c3)c1C2` [Compound 242, (3-Fluoro-phenyl)-[7-methoxy-6-(3-methoxy-propoxy)-2,4-dihydro-indeno[1,2-c]pyrazol-3-yl]-amine] the same measures were 104% and 0.013 µM.
Take `COc1ccncc1Nc1[nH]nc2c1Cc1cc(OC)c(OC)cc1-2` [Compound 453, (6,7-Dimethoxy-2,4-dihydro-indeno[1,2-c]pyrazol-3-yl)-(4-methoxy-pyridin-3-yl)-amine]: the inhibition at 10 µM under setting [1] stood at 88%. For the same compound, the IC50 under setting [2] is 0.829 µM.
For the compound `COc1ccc(OC)c(Nc2[nH]nc3c2Cc2cc(OCCCN(C)C)ccc2-3)c1` [Compound 162, (2,5-Dimethoxy-phenyl)-[6-(3-dimethylamino-propoxy)-2,4-dihydro-indeno[1,2-c]pyrazol-3-yl]-amine], under setting [1], the inhibition at 10 µM came out at 21.5%. Also, under setting [2], the IC50 came to 54.9 µM.
Regarding `COc1cc2c(cc1OC)C(c1ccccc1)c1c-2n[nH]c1Nc1ccccc1` (stereo not drawn) [Compound 300, (6,7-Dimethoxy-4-phenyl-2,4-dihydro-indeno[1,2-c]pyrazol-3-yl)-phenyl-amine], the inhibition at 10 µM under setting [1] was 40%.
On to `COc1cc2c(cc1OC)-c1n[nH]c(Nc3cc(C(F)(F)F)cc(C(F)(F)F)c3)c1C2` [Compound 70, (3,5-Bis-trifluoromethyl-phenyl)-(6,7-dimethoxy-2,4-dihydro-indeno[1,2-c]pyrazol-3-yl)-amine], for which, under setting [1], the inhibition at 10 µM is 41.5%. For the same compound, under setting [2], the IC50 amounted to 16.8 µM.
For the compound `Cc1cccc2c1Cc1c-2n[nH]c1Nc1ccc(F)cc1` [Compound 98, (4-Fluoro-phenyl)-(5-methyl-2,4-dihydro-indeno[1,2-c]pyrazol-3-yl)-amine], the inhibition at 10 µM under setting [1] came out at 26%. Under setting [2], the IC50 was determined as 30.7 µM.
As to `O=C1c2ccccc2-c2n[nH]c(Nc3ccccc3)c21` [Compound 35, 3-Phenylamino-2H-indeno[1,2-c]pyrazol-4-one], under setting [1], the inhibition at 10 µM worked out at 88%. The IC50 under setting [2] is 2.06 µM.
With `CC1c2ccccc2-c2n[nH]c(Nc3cccc(C(F)(F)F)c3)c21` (stereo not drawn) [Compound 114, (4-Methyl-2,4-dihydro-indeno[1,2-c]pyrazol-3-yl)-(3-trifluoromethyl-phenyl)-amine], the inhibition at 10 µM under setting [1] is 80%. Moreover, the IC50 under setting [2] was found to be 1.37 µM.
Consider `CNCCNC(=O)n1nc(Nc2cccc(F)c2)c2c1-c1cc(OC)c(OC)cc1C2` [Compound 524, 3-(3-Fluoro-phenylamino)-6,7-dimethoxy-4H-indeno[1,2-c]pyrazole-1-carboxylic acid (2-methylamino-ethyl)-amide], for which the inhibition at 10 µM under setting [1] amounted to 78%. Further, the IC50 under setting [2] is 2.48 µM.
The matching figures for `COc1cc2c(cc1OC)-c1n[nH]c(NCc3c(F)cccc3F)c1C2` [Compound 321, (2,6-Difluoro-benzyl)-(6,7-dimethoxy-2,4-dihydro-indeno[1,2-c]pyrazol-3-yl)-amine]: 77% and 0.00745 µM.
On to `CCOc1cccc(Nc2[nH]nc3c2C(CC)c2cc(OC)c(OC)cc2-3)c1` (single isomer, unassigned) [Compound 571, (3-Ethoxy-phenyl)-(4-ethyl-6,7-dimethoxy-2,4-dihydro-indeno[1,2-c]pyrazol-3-yl)-amine], for which the “Percent Inhibition @ 10 uM” value (PDGF-R kinase activity, compound at 10 uM, 10 µM) is reported as 66%. For the same compound, under setting [3], the IC50 was determined as 3.89 µM.
On to `Cc1cccc(CNc2[nH]nc3c2Cc2cc(F)ccc2-3)c1` [Compound 305, (6-Fluoro-2,4-dihydro-indeno[1,2-c]pyrazol-3-yl)-(3-methyl-benzyl)-amine], for which, under setting [1], the inhibition at 10 µM stood at 87%. Further, under setting [2], the IC50 came out at 0.458 µM.
With `COc1cc2c(cc1OC)-c1n[nH]c(NCc3cccc(C)c3)c1C2` [Compound 272, (6,7-Dimethoxy-2,4-dihydro-indeno[1,2-c]pyrazol-3-yl)-(3-methyl-benzyl)-amine], the inhibition at 10 µM under setting [1] was found to be 61%. In addition, the IC50 under setting [2] was determined as 0.389 µM.
The matching figures for `OC1c2ccccc2-c2n[nH]c(Nc3ccccc3)c21` (stereo not drawn) [Compound 50, 3-Phenylamino-2,4-dihydro-indeno[1,2-c]pyrazol-4-ol]: 38% and 11.4 µM.
